Source: patent US12378203B2, “Imidazole compounds, process for the synthesis and uses thereof” (AHAMMUNE BIOSCIENCES PRIVATE LIMITED, priority 2018, dated 2025)

Assays:
Format in all cases: cell-based
mouse B16F10 cells = experiment: Protection of melanocytes from tunicamycin (ER stress) induced cell death, MTT assay, B16F10; conditions: for % Recovery: compound at 25-30 μM, 6 h pretreatment, tunicamycin 300 ng/ml, total 72 h, cell growth over tunicamycin treatment; for EC50: Mus musculus, B16-F10, different concentrations of compound along with tunicamycin, GraphPad Prism 7
Procedure: (§1) Compounds synthesized under present invention were tested for their in vitro potency. The potency was tested as their ability to protect melanocytes from ER stress induced cell death. ER stress was caused by the treatment of tunicamycin. The results obtained are summarized in Table-I, Table-II and Table-III for mouse B16F10 cells, human A375 cells and human primary melanocytes respectively. Table-IV and Table-V describes the potency of the compounds in effective concentration 50 (EC50) which means the dose of compound needed to get the 50% of maximum effect.
(§2) For the estimation of potency, mouse B16F10, human A375 or human primary melanocytes (NHEM) cells were pretreated in quadruplicates with these compounds for 6 hours. After 6 hours of incubation, tunicamycin was added at either 300 ng/ml for B16F10 cells or at 100 ng/ml for A375 cells or at 200 ng/ml for NHEM to induce stress mediated cell death and cultured further for a total of 72 hours. The vehicle (DMSO) concentration was kept constant for each well. After 72 hours of treatment, MTT assay was performed to measure the cell growth and vehicle control was kept at 100%. Effect of the treatment of compounds was calculated as cell growth over tunicamycin treatment. For the estimation of Effective Concentration 50 (EC50), cells were treated with different concentration of compounds along with tunicamycin and MTT assay was performed. The EC50 values were calculated by GraphPad Prism 7 software.

human A375 cells = experiment: Protection of melanocytes from tunicamycin (ER stress) induced cell death, MTT assay, A375; conditions: for % Recovery: compound at 25-30 μM, 6 h pretreatment, tunicamycin 100 ng/ml, total 72 h, cell growth over tunicamycin treatment; for EC50: Homo sapiens, A-375, different concentrations of compound along with tunicamycin, GraphPad Prism 7
Procedure: as §1, §2

[1] = test system: human primary melanocytes (NHEM: Normal Human Epidermal Melanocytes); experiment: Protection of melanocytes from tunicamycin (ER stress) induced cell death, MTT assay, NHEM; conditions: compound at 25-30 μM, 6 h pretreatment, tunicamycin 200 ng/ml, total 72 h, cell growth over tunicamycin treatment
Procedure: as §1, §2

Structure (SMILES) | % Recovery (mouse B16F10 cells) [%] | % Recovery (human A375 cells) [%] | EC50 (mouse B16F10 cells) [µM] | EC50 (human A375 cells) [µM] | % Recovery [1] [%]
O=C(Cc1c[nH]c(-c2ccc(Cl)cc2)n1)N1CCCC1 [Compound 016, 2-(2-(4-chlorophenyl)-1H-imidazol-4-yl)-1-(pyrrolidin-1-yl)ethan-1-one] | 14 | 17 |  |  | 
CCCCNC(=O)Cc1c[nH]c(-c2ccc(Cl)cc2)n1 [Compound 004, N-butyl-2-(2-(4-chlorophenyl)-1H-imidazol-4-yl)acetamide] | 22 | 32 |  |  | 
CCCCCCCC(=O)NCCc1c[nH]c(-c2ccc(Cl)cc2)n1 [Compound 068, N-(2-(2-(4-chlorophenyl)-1H-imidazol-4-yl)ethyl)octanamide] | 21 | 42 | 33.8 | 9 | 
O=C(NCCc1c[nH]c(-c2ccc(Cl)cc2)n1)C1CC1 [Compound 046, N-(2-(2-(4-chlorophenyl)-1H-imidazol-4-yl)ethyl)cyclopropanecarboxamide] | 27 | 63 |  | 7.9 | 10
O=C(NCCc1c[nH]c(-c2ccc(Cl)cc2)n1)C12CC3CC(CC(C3)C1)C2 [Compound 064, (3r,5r,7r)-N-(2-(2-(4-chlorophenyl)-1H-imidazol-4-yl)ethyl)adamantane-1-carboxamide] |  | 65 |  | 4.9 | 38
O=C(Cc1c[nH]c(-c2ccc(Cl)cc2)n1)Nc1cccc(C(F)(F)F)c1 [Compound 009, 2-(2-(4-chlorophenyl)-1H-imidazol-4-yl)-N-(3-(trifluoromethyl)phenyl)acetamide] | 36 |  |  |  | 
CC(C)CC(=O)NCCc1c[nH]c(-c2ccc(Cl)cc2)n1 [Compound 027, N-(2-(2-(4-chlorophenyl)-1H-imidazol-4-yl)ethyl)-3-methylbutanamide] |  | 56 |  | 14.9 | 33
CC(C)(C)CC(=O)NCCc1c[nH]c(-c2ccc(Cl)cc2)n1 [Compound 025, N-(2-(2-(4-chlorophenyl)-1H-imidazol-4-yl)ethyl)-3,3-dimethylbutanamide] | 55 | 57 | 3.3 | 14.2 | 41
Cn1cc(CC(=O)Nc2cccc(C(F)(F)F)c2)nc1-c1ccc(Cl)cc1 [Compound 007, 2-(2-(4-chlorophenyl)-1-methyl-1H-imidazol-4-yl)-N-(3-(trifluoromethyl)phenyl)acetamide] | 38 | 19 |  |  | 
O=C(Cc1c[nH]c(-c2ccc(Cl)cc2)n1)Nc1ccc(F)cc1 [Compound 011, 2-(2-(4-chlorophenyl)-1H-imidazol-4-yl)-N-(4-fluorophenyl)acetamide] | 18 |  |  |  | 
CCCCCC(=O)NCCc1c[nH]c(-c2ccc(Cl)cc2)n1 [Compound 067, N-(2-(2-(4-chlorophenyl)-1H-imidazol-4-yl)ethyl)hexanamide] | 40 | 54 | 9.7 | 3.1 | 
O=C(NCCc1c[nH]c(-c2ccc(Cl)cc2Cl)n1)c1ccc(C(F)(F)F)cc1 [Compound 066, N-(2-(2-(2,4-dichlorophenyl)-1H-imidazol-4-yl)ethyl)-4-(trifluoromethyl)benzamide] | 50 | 44 | 7.2 | 12.1 | 
O=C(Cc1c[nH]c(-c2ccc(Cl)cc2)n1)NC1CCCC1 [Compound 019, 2-(2-(4-chlorophenyl)-1H-imidazol-4-yl)-N-cyclopentylacetamide] | 36 |  |  |  | 
O=C(Cc1c[nH]c(-c2ccc(Cl)cc2)n1)Nc1ccc(C(F)(F)F)cc1 [Compound 014, 2-(2-(4-chlorophenyl)-1H-imidazol-4-yl)-N-(4-(trifluoromethyl)phenyl)acetamide] | 52 | 36 |  | 33.3 | 
CN1CCN(C(=O)Cc2c[nH]c(-c3ccc(Cl)cc3)n2)CC1 [Compound 020, 2-(2-(4-chlorophenyl)-1H-imidazol-4-yl)-1-(4-methylpiperazin-1-yl)ethan-1-one] | 17 |  |  |  | 
CCCCNC(=O)Cc1cn(C)c(-c2ccc(Cl)cc2)n1 [Compound 005, N-butyl-2-(2-(4-chlorophenyl)-1-methyl-1H-imidazol-4-yl)acetamide] | 38 |  |  |  | 
O=C(Cc1c[nH]c(-c2ccc(Cl)cc2)n1)NCCN1CCOCC1 [Compound 003, 2-(2-(4-chlorophenyl)-1H-imidazol-4-yl)-N-(2-morpholinoethyl)acetamide] | 17 | 13 |  |  | 
Cn1cc(CC(=O)NCCN2CCOCC2)nc1-c1ccc(Cl)cc1 [Compound 006, 2-(2-(4-chlorophenyl)-1-methyl-1H-imidazol-4-yl)-N-(2-morpholinoethyl)acetamide] | 31 |  |  |  | 
Cn1cc(CC(=O)N2CCCC2)nc1-c1ccc(Cl)cc1 [Compound 017, 2-(2-(4-chlorophenyl)-1-methyl-1H-imidazol-4-yl)-1-(pyrrolidin-1-yl)ethan-1-one] | 29 |  |  |  | 
O=C(NCCc1c[nH]c(-c2ccc(Cl)cc2Cl)n1)c1ccc(F)cc1 [Compound 070, N-(2-(2-(2,4-dichlorophenyl)-1H-imidazol-4-yl)ethyl)-4-fluorobenzamide] | 51 | 44 | 11.9 | 8.1 | 
O=C(Cc1c[nH]c(-c2ccc(Cl)cc2)n1)N1CCC(F)(F)CC1 [Compound 012, 2-(2-(4-chlorophenyl)-1H-imidazol-4-yl)-1-(4,4-difluoropiperidin-1-yl)ethan-1-one] | 15 |  |  |  | 
CN1CCN(C(=O)Cc2cn(C)c(-c3ccc(Cl)cc3)n2)CC1 [Compound 021, 2-(2-(4-chlorophenyl)-1-methyl-1H-imidazol-4-yl)-1-(4-methylpiperazin-1-yl)ethan-1-one] |  |  | 55.7 |  | 
O=C(Cc1c[nH]c(-c2ccc(Cl)cc2)n1)NCCc1ccc(F)cc1 [Compound 001, 2-(2-(4-chlorophenyl)-1H-imidazol-4-yl)-N-(4-fluorophenethyl)acetamide] | 52 | 25 |  |  | 
Cn1cc(CC(=O)Nc2ccc(F)cc2)nc1-c1ccc(Cl)cc1 [Compound 013, 2-(2-(4-chlorophenyl)-1-methyl-1H-imidazol-4-yl)-N-(4-fluorophenyl)acetamide] | 40 |  |  |  | 
O=C(NCCc1c[nH]c(-c2cc(Cl)cc(Cl)c2)n1)c1cc(F)cc(F)c1 [Compound 069, N-(2-(2-(3,5-dichlorophenyl)-1H-imidazol-4-yl)ethyl)-3,5-difluorobenzamide] |  | 88 |  | 1.2 | 
CC(C)OCCCNC(=O)Cc1c[nH]c(-c2ccc(Cl)cc2)n1 [Compound 010, 2-(2-(4-chlorophenyl)-1H-imidazol-4-yl)-N-(3-isopropoxypropyl)acetamide] | 12 | 17 |  |  | 
Cn1cc(CC(=O)NCCc2ccc(F)cc2)nc1-c1ccc(Cl)cc1 [Compound 022, 2-(2-(4-chlorophenyl)-1-methyl-1H-imidazol-4-yl)-N-(4-fluorophenethyl)acetamide] | 44 | 18 | 13.7 |  | 
O=C(NCCc1c[nH]c(-c2ccc(Cl)cc2Cl)n1)c1cc(F)cc(F)c1 [Compound 071, N-(2-(2-(2,4-dichlorophenyl)-1H-imidazol-4-yl)ethyl)-3,5-difluorobenzamide] | 58 | 39 | 10.9 | 10.5 | 
CC(C)OCCCNC(=O)Cc1cn(C)c(-c2ccc(Cl)cc2)n1 [Compound 008, 2-(2-(4-chlorophenyl)-1-methyl-1H-imidazol-4-yl)-N-(3-isopropoxypropyl)acetamide] | 39 |  |  |  | 
